Test results as given in publication PMC11721041 (Molecules, 2024).
Values joined by “and” are separate entries in the source; they are usually repeats but may differ in a detail not shown here. Equal values may be shown once. Read-outs that look alike come from different tables or passages of the source.

Key:
[1] = target: T1, Acetylcholinesterase from Electrophorus electricus (electric eel) (Electrophorus electricus, UniProt O42275); assay: In vitro AChE inhibition assay (modified Ellman's method); format: biochemical; conditions: for IC50: IC50 against AChE enzyme, triplicate; for IC50 / AChE inhibitory activity (in words): electric eel AChE, Ellman's assay; for times more active than 3-oxo-analog: indole derivative vs its 3-oxo amide
T1 construct: purchased Sigma-Aldrich C2888
T1 sequence (O42275 24-633): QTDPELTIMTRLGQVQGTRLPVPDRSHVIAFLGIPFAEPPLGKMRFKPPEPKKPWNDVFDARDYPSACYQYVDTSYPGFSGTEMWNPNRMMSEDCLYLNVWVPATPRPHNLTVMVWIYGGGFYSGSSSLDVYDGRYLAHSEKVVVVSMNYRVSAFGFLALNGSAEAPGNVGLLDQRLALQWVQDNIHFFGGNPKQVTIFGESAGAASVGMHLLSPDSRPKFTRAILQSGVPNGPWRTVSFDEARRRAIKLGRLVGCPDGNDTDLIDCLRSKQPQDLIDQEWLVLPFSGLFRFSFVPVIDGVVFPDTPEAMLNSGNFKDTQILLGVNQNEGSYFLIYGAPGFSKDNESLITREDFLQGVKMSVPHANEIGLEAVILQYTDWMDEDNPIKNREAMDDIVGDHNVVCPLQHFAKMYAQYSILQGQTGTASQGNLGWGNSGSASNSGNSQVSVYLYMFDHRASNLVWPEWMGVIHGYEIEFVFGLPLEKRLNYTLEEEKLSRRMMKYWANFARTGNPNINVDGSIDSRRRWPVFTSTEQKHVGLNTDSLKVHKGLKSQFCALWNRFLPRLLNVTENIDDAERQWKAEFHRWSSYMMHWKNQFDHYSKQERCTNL
Experimental: Acetylcholinesterase from Electrophorus electricus (electric eel) (AChE, Sigma C2888), sodium phosphate buffer (PBS) 0.1 M pH 7.4, acetylthiocholine iodide (ACT, Sigma A5751), and 5,5′-dithiobis-(2-nitrobenzoic acid) (DTNB, Sigma D8130) were purchased from Sigma-Aldrich (St. Louis, MO, USA). In vitro anti-AChE activity was performed based on the modified Ellman’s method. […] The IC50 values were determined graphically from inhibition curves (log inhibitor concentration vs. percent of inhibition). All experiments were performed in triplicate. Donepezil was used as a positive control

[2] = target: butyrylcholinesterase (BChE); conditions: cited from earlier work; for BChE activity (in words): native triterpenic acids
[3] = system: AChE; conditions: cited from earlier work; for type of inhibition of AChE: native triterpenic acids
[4] = target: T2, recombinant human acetylcholinesterase (hAChE) (Homo sapiens, UniProt P22303); assay: In vitro inhibition of recombinant human AChE (Ellman's method), IC50; format: biochemical; conditions: 1 mM ATC, pH 8.0, 25 °C, read-out: IC50 against hAChE enzyme
T2 construct: purchased Sigma-Aldrich
T2 sequence (P22303 32-614): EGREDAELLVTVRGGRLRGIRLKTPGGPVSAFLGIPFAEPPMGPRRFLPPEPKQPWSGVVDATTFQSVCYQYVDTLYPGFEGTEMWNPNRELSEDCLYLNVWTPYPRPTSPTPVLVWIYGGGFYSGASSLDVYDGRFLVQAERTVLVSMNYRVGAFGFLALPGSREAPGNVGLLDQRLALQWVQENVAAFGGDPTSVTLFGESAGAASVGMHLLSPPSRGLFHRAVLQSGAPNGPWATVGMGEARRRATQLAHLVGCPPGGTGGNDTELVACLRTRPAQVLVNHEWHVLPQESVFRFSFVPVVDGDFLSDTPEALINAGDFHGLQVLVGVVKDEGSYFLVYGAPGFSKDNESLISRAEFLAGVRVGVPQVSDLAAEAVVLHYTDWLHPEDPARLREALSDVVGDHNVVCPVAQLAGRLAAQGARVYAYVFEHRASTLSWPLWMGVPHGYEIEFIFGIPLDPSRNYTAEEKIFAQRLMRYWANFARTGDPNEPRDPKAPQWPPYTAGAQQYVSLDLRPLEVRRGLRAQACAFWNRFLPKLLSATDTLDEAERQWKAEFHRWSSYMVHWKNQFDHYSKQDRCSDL
Experimental: Acetylthiocholine iodide (ATC), recombinant human acetylcholinesterase (hAChE), and 5,5′-dithio-bis-(2-nitrobenzoic) acid (DTNB) were purchased from Sigma-Aldrich (Sigma-Aldrich). Dimethyl sulfoxide (DMSO) was purchased from PanReac AppliChem GmbH (Darmstadt, Germany). All other chemicals were of biochemical grade. All assays were performed at 25 °C using a UV-1800 Shimadzu (Kyoto, Japan) spectrophotometer at 412 nm. The inhibitory potency of compounds against hAChE was studied using Ellman’s method. Stock solutions of compounds (0.01 M) were prepared using DMSO. The final concentration of DMSO in the cuvette was less than 0.05% vol. The inhibitory effect against AChE of 0.05% DMSO was considered weak. To determine the IC50 (the concentration of the compound producing 50% enzyme activity inhibition), enzyme-catalyzed hydrolysis was carried out in 0.1 M phosphate buffer (pH 8.0) containing hAChE in the picomolar range, DTNB (0.1 mM final concentration), and 1 mM ATC as substrate. […] Then, absorbance change was recorded for 2 min. […] The percentage of hAChE inhibition was determined by comparison of rates of reaction of test samples relative to the control sample. […] IC50 was calculated using the Hill Equation: E/Emax=I^n/IC50n+I^n where E is the enzyme activity and [I] is the compound concentration.

[5] = target: T2, recombinant human acetylcholinesterase (hAChE); assay: hAChE inhibition constants and inhibition type (Dixon and Cornish-Bowden plots); format: biochemical; conditions: for type of AChE inhibition: Dixon and Cornish-Bowden plots
Experimental: The inhibition constants for hAChE were determined in 0.1M sodium phosphate buffer (pH 8.0) with various ATC concentrations in the range 0.1–1 mM. The rate of hydrolysis of ATC was measured after the addition of DTNB (0.1 mM final concentration) and enzyme. The final enzyme concentration in the assays was in the picomolar range. Controls of the active enzyme with 0.05% DMSO and ATC spontaneous hydrolysis in the absence of an inhibitor were performed for each substrate concentration. The rate of substrate hydrolysis was recorded by monitoring the linear optical density change at 412 nm for 5 min. Experiments were performed in triplicate. Inhibition constants were determined from the Dixon plot and Cornish-Bowden transformation using OriginPro 8.5 software (OriginLab Corporation, Northampton, MA, USA).

[6] = system: human T-lymphoblastic leukemia cancer cells; conditions: cited from earlier work
[7] = set-up: method as in PMID 32090748; conditions: combination with SSRIs, patients with MDD; cited from earlier work

CC1(C)C(=O)CC[C@@]2(C)C1CC[C@]1(C)C2CC=C2C3C[C@@](C)(C(=O)NC4CN5CCC4CC5)CC[C@]3(C)CC[C@]21C (mixture of isomers) [Compound 9, 3-oxo-11-dezoxo-olean-12-en-30-((±)-3-aminoquinuclidine) amide]
IC50 [1]: 29 µM and 28.9 µM
AChE inhibitory activity (in words) [1]: weak activity

CC(=O)O[C@H]1CC[C@@]2(C)C(CC[C@]3(C)C2CCC2C4[C@H](C(C)=O)CC[C@]4(C(=O)NCCN4CCCC4)CC[C@]23C)C1(C)C (stereo partly drawn)
Ki ([2]; read-out: Ki against BChE): 0.07 µM

C=C(C)[C@@H]1CC[C@]2(C(=O)NC3CN4CCC3CC4)CC[C@]3(C)C(CCC4[C@@]5(C)Cc6c([nH]c7ccccc67)C(C)(C)C5CC[C@]43C)C12 (mixture of isomers) [Compound 10, [3,2b]Indolo-lup-20-en-28-((±)-3-aminoquinuclidine) amide]
IC50 [1]: 4.77 ± 0.21 µM
times more active than 3-oxo-analog ([1]; ratio of AChE IC50 values): 3.5 times

C[C@H]1[C@H](C)CC[C@]2(C(=O)O)CC[C@]3(C)C(=CC[C@@H]4[C@@]5(C)CC[C@H](O)C(C)(C)[C@@H]5CC[C@]43C)[C@H]12 [UA, ursolic acid]
BChE activity (in words) [2]: inactivity
type of inhibition of AChE [3]: mixed

CC1(C)CC[C@]2(C(=O)NC3CN4CCC3CC4)CC[C@]3(C)C(=CCC4[C@@]5(C)Cc6c([nH]c7ccccc67)C(C)(C)C5CC[C@]43C)C2C1 (mixture of isomers) [Compound 11, [3,2b]Indolo-olean-12-en-28-((±)-3-aminoquinuclidine) amide]
IC50 [1]: 0.47 ± 0.03 µM
AChE inhibitory activity (in words) [1]: weak activity
times more active than 3-oxo-analog ([1]; ratio of AChE IC50 values): 3.5 times
IC50 [4]: 8.89 ± 0.4 µM
type of AChE inhibition [5]: uncompetitive type of inhibition
type of AChE inhibition ([5]; listed as 2,3-indolo-oleanolic acid amide): uncompetitive-type inhibitor
Kui (uncompetitive inhibition constant) ([5]; hAChE, ATC 0.1–1 mM, pH 8.0): 19.1 ± 5.1 µM

C=C(C)[C@@H]1CC[C@]2(C(=O)NC3CN4CCC3CC4)CC[C@]3(C)C(CCC4[C@@]5(C)CCC(=O)C(C)(C)C5CC[C@]43C)C12 (mixture of isomers) [Compound 6, 3-oxo-lup-20-en-28-((±)-3-aminoquinuclidine) amide]
IC50 [1]: 17 ± 1.04 µM
AChE inhibitory activity (in words) [1]: weak activity

CC1(C)CC[C@]2(C(=O)NC3CN4CCC3CC4)CC[C@]3(C)C(=CCC4[C@@]5(C)CCC(=O)C(C)(C)C5CC[C@]43C)C2C1 (mixture of isomers) [Compound 7, 3-oxo-olean-12-en-28-((±)-3-aminoquinuclidine) amide]
IC50 [1]: 1.67 ± 0.05 µM

C[C@@H]1CC[C@]2(C(=O)NC3CN4CCC3CC4)CC[C@]3(C)C(=CCC4[C@@]5(C)CCC(=O)C(C)(C)C5CC[C@]43C)C2[C@H]1C (mixture of isomers) [Compound 8, 3-oxo-urs-12-en-28-((±)-3-aminoquinuclidine) amide]
IC50 [1]: 0.43 ± 0.02 µM
times less active than donepezil ([1]; ratio of AChE IC50 values): 14.8 times
IC50 [4]: 5.33 ± 1.6 µM
type of AChE inhibition [5]: mixed-type inhibitor
Kui (uncompetitive inhibition constant) ([5]; hAChE, ATC 0.1–1 mM, pH 8.0): 22.8 ± 1.5 µM
Ki ([5]; hAChE, ATC 0.1–1 mM, pH 8.0, read-out: Kci (competitive inhibition constant)): 6.8 ± 0.4 µM

C[C@@H]1CC[C@@]2(OC1)O[C@H]1C[C@H]3[C@@H]4CC=C5C[C@@H](O)CC[C@]5(C)[C@H]4CC[C@]3(C)[C@H]1[C@@H]2C [diosgenin]
cytotoxicity (in words) [6]: does not exhibit cytotoxicity

CC1(C)[C@@H](O[C@H]2O[C@H](C(=O)O)[C@@H](O)[C@H](O)[C@H]2O[C@@H]2O[C@H](C(=O)O)[C@@H](O)[C@H](O)[C@H]2O)CC[C@]2(C)[C@H]3C(=O)C=C4[C@@H]5C[C@@](C)(C(=O)O)CC[C@]5(C)CC[C@@]4(C)[C@]3(C)CC[C@@H]12 [glycyrrhizic acid, Glycyrrhizic acid]
clinical effect of adjunctive therapy (in words) [7]: impressively greater symptomatic improvement, better treatment response, and a faster onset of clinical effects

CC1(C)CC[C@]2(C(=O)O)CC[C@]3(C)C(=CC[C@@H]4[C@@]5(C)CC[C@H](O)C(C)(C)[C@@H]5CC[C@]43C)[C@@H]2C1 [OA, oleanolic acid]
BChE activity (in words) [2]: inactivity
type of inhibition of AChE [3]: competitive

CC1(C)c2[nH]c3ccccc3c2C[C@@]2(C)C1CC[C@]1(C)C2CC=C2C3C[C@@](C)(C(=O)NC4CN5CCC4CC5)CC[C@]3(C)CC[C@]21C (mixture of isomers) [Compound 13, [3,2b]Indolo-11-dezoxo-olean-12-en-30-((±)-3-aminoquinuclidine) amide]
IC50 [1]: > 128 µM
AChE inhibitory activity (in words) [1]: weak activity

C[C@@H]1CC[C@]2(C(=O)NC3CN4CCC3CC4)CC[C@]3(C)C(=CCC4[C@@]5(C)Cc6c([nH]c7ccccc67)C(C)(C)C5CC[C@]43C)C2[C@H]1C (mixture of isomers) [Compound 12, [3,2b]Indolo-urs-12-en-28-((±)-3-aminoquinuclidine) amide]
IC50 [1]: 18 ± 1.39 µM
AChE inhibitory activity (in words) [1]: weak activity

N-benzyl-3-benzamidoquinuclidine
Ki ([2]; read-out: Ki, butyrylcholinesterase inhibitory activity): 3.7 µM

C=C(C)[C@@H]1CC[C@]2(C(=O)NCCN3CCCCC3)CC[C@]3(C)C(CCC4[C@@]5(C)CC[C@H](O)C(C)(C)C5CC[C@]43C)C12 (stereo partly drawn)
Ki ([3]; selective inhibition of AChE): 1 µM
